Measurements as given in paper PMC11893401, “Pharmacokinetics and pharmacodynamics of insulin lispro 25 versus the original preparation (Humalog®25) in Chinese healthy male volunteers” (Frontiers in Pharmacology, 2025).

Details: in vivo
Experimental: Tolerability and safety were assessed by closely monitoring blood glucose levels and conducting other tests. All adverse events and severe adverse events (SAEs) were evaluated.
The safety of both formulations was evaluated through the assessment of laboratory examinations, 12-lead electrocardiogram, and vital signs.

Infusion site swelling	Substance
0 Number of Subjects(%)	mixed protamine zinc recombinant human insulin lispro injection [listing 1 of 2 here]
1(2.0) Number of Subjects(%)	mixed protamine zinc recombinant human insulin lispro injection [listing 2 of 2 here]
